Laboratory results as given in patent publication US8980222B2, “Diagnostic use of endothelin ETB receptor agonists and ETA receptor antagonists in tumor imaging” (The Board of Trustees of the University of Illinois, priority 2004, dated 2015).
Where two headings read alike, the source gives them in different places. Non-standard residues stand in square brackets, D forms with d. Residues, ends and D or L forms follow the SMILES beside them.

What was measured:
tumor [1] = assay: Tumor blood flow with ETA receptor antagonists; details: in vivo
Protocol: A study using BMS182874, an ETA receptor antagonist, also was conducted.

tumor [2] = details: Sonveaux et al. 2004; cited from earlier work
breast tumor = assay: Breast tumor blood perfusion by Laser Doppler Flowmetry in MNU-induced mammary tumor rats; type: in vivo, rat; details: for Maximal increase in tumor perfusion (%): Laser Doppler Flowmetry, breast tumor-bearing rats
Protocol: MNU or saline treatments were carried out as intraperitoneal injections three months prior to the study. Rats were regularly palpated from four weeks after onset of the treatments. When the tumors reached an optimal size (i.e., 4-8 mm in diameter), the experiments were begun. Systemic hemodynamic and regional circulation parameters were determined at baseline, 30, 60, and 120 minutes after initiating ET-1 (50 ng/kg/min) infusion.
Blood perfusion to the mammary gland of the rats was measured using laser Doppler flowmetry as described in literature procedures (23, 24). The animals were shaved around the nipples. The skin surrounding the mammary glands was dissected out as a lambeau about 6 cm wide and 4 cm long. A standard model fiber optic probe was applied to the surface of the lambeau, and secured to the tissue by double stick tape. The lambeau was placed in a metal holder and taped down to prevent movement, then connected to a Periflux PF2b 4000 Laser Doppler Flowmetry (Perimed KB, Stockholm, Sweden). The time constant was set at 1.5 seconds and the bandwidth was set at 4 KHz.
A preclinical model of MNU-induced primary autochthonous mammary tumor was used in the following studies. This tumor model of breast cancer offers several advantages over other models (Rai et al., Cancer Chemother. Parmaacol., 51(1):21-8 (2003)). Virgin female Sprague Dawley rats were used for the study. At 48 days of age, rats received a single injection of N-methyl nitrosourea (MNU; 50 mg/kg, i.v.). Eighty percent of the animals developed tumors two months after MNU injection and 10% of total rats may die or loose weight due to MNU injection or develop a tumor after several months. Tumor appearance and location is monitored by manual mammary gland palpation and the tumor diameter is measured with a digital caliper. Rats with a tumor volume of 200-500 mm^3 were selected for the experiments.
FIG. 2 illustrates the effect of IRL-1620 on breast tumor perfusion (N=5/group). Breast tumor-bearing rats were anesthetized and mammary tumor perfusion was recorded using a Laser Doppler Flowmetry for three hours. A 15-minute stable baseline recording was obtained before the administration of saline or IRL-1620 1, 3, or 9 nmol/kg via the tail vein in a final volume of 0.2 ml. Tumor perfusion was recorded for three hours (*p<0.001 compared to vehicle-treated rats).
Animals received BQ 788 ([…]) or saline via tail vein 15 minutes before the administration of IRL-1620 (3 nmol/kg) and tumor perfusion was recorded for three hours (*p<0.001 compared to BQ 788-administered rats). Studies also were conducted to determine the effect of IRL-1620 on blood perfusion in normal mammary tissue.

ETA and ETB receptors = details: cited from earlier work

Row | Compound | Selectivity for ETB receptors than ETA receptors (ETA and ETB receptors) | Maximal increase in tumor perfusion (%) (breast tumor) | also measured
1 | Cc1noc(NS(=O)(=O)c2cccc3c(N(C)C)cccc23)c1C [BMS182874] |  |  | Tumor blood flow (tumor [1]): increased the tumor blood flow
2 | CC(C)C[C@@H]1NC(=O)[C@@H](C(C)C)NC(=O)[C@@H]2CCCN2C(=O)[C@@H](CC(=O)O)NC(=O)[C@@H](Cc2c[nH]c3ccccc23)NC1=O [BQ123] (cyclo(L[dW][dD]P[dV])) |  |  | Tumor blood flow (tumor [2]): significantly improved
3 | CCCC[C@@H](NC(=O)[C@@H](Cc1cn(C(=O)OC)c2ccccc12)NC(=O)[C@H](CC(C)(C)C)NC(=O)N1[C@H](C)CCC[C@@H]1C)C(=O)O [BQ788, N-cis-2,6-dimethylpiperidinocarbonyl-L-gamma-methylleucyl-D-1-methoxycarbonyltrptophanyl-D-Nle] |  |  | Effect of antagonist on IRL-1620 induced tumor blood perfusion (breast tumor; BQ 788 0.5 μg/kg 15 minutes before IRL-1620 3 nmol/kg): completely blocked; Effect of antagonist on ET-1 induced increase in tumor blood flow (breast tumor; ET-1 induced): completely blocked
4 | CC[C@H](C)[C@H](NC(=O)[C@H](CC(=O)O)NC(=O)[C@H](CC(C)C)NC(=O)[C@H](Cc1c[nH]cn1)NC(=O)[C@@H]1CSSC[C@H](N)C(=O)N[C@@H](CO)C(=O)N[C@H]2CSSC[C@H](NC(=O)[C@H](CCC(=O)O)NC(=O)[C@H](CCCCN)NC(=O)[C@H](CC(=O)O)NC(=O)[C@H](CCSC)NC(=O)[C@H](CC(C)C)NC(=O)[C@H](CO)NC(=O)[C@H](CO)NC2=O)C(=O)N[C@@H](C(C)C)C(=O)N[C@@H](Cc2ccc(O)cc2)C(=O)N[C@@H](Cc2ccccc2)C(=O)N1)C(=O)N[C@H](C(=O)N[C@@H](Cc1c[nH]c2ccccc12)C(=O)O)[C@@H](C)CC [ET-1, Endothelin-1] | equal affinity | 46.19% | Breast tumor perfusion after exogenous infusion (breast tumor; rat, in vivo): transient increase; Perfusion to major organs (breast tumor; rat, in vivo): without altering perfusion
5 | ET-3: ET agonist three times more selective for ETB receptors than ETA receptors | three times more selective | 47.99% | 
6 | [Ala^1, 3, 11, 15]-ET-1 (ASASSLMDKEAVYFAHLDIIW; Endothelin-1; UniProt P05305 53-73, looked up, variant C1A C3A C11A C15A) [4 Ala ET-1] | 1700 times | 53.96% | 
